pIC50: −log10 of the molar value.
Tests used:
[1] = tested on: SH-SY5Y cells; experiment: MTS cytotoxicity assay in SH-SY5Y cells; type: cell-based, human; conditions: 30 µM, 72 h
Procedure: The cytotoxic potential of SERAAK2 was evaluated in two human-derived cell lines chosen for their physiological relevance: HepG2 (hepatocellular carcinoma) and SH-SY5Y (neuroblastoma). […] It is particularly noteworthy that the use of the SERAAK2 compound at a concentration of 30 µM reduces the number of viable cells below the level of the positive control (doxorubicin) at the same concentration (Table 3). […] Under the experimental conditions used, after 72 h of incubation, a fraction of doxorubicin-treated cells remains metabolically active and generates a low signal in the MTS assay. The enhanced signal reduction observed in the MTS assay for the tested compound, compared to doxorubicin, indicates strong cytotoxic activity leading to necrosis of the entire cell population.
An assessment of the cytotoxic potential of SERAAK2 was carried out utilizing the colorimetric MTS assay. This investigation was executed on both HepG2 and SH-SY5Y cell lines, adhering to an identical procedure. The cell lines, sourced from the American Type Culture Collection (Manassas, VA, USA), were cultured under standard conditions (5% CO2, 37 °C) in DMEM/F12 medium (#31330-038, ThermoFisher Scientific, Waltham, MA, USA). The medium was supplemented with 10% Fetal Bovine Serum (FBS, #A5256801, ThermoFisher Scientific) and a Penicillin–Streptomycin solution (#15140-122, ThermoFisher Scientific) until their use in the study. Cells within passage numbers 15 to 25 were plated in 96-well plates at a density of 5000 cells per well in 200 μL of medium and allowed to adhere during a 24 h incubation at 37 °C with 5% CO2. […] The plates were then subsequently returned to the 37 °C incubator, after which absorbance was recorded with a Spark microplate reader; this measurement occurred after 1 h for the HepG2 line and 3 h for the SH-SY5Y line. The ultimate cell viability percentage was determined by comparing results to the control wells, which represented 100% viability, and the wells treated with 10 μM doxorubicin, which were defined as 0% viability. […]

[2] = tested on: mice; set-up: method as in PMID 40430337; conditions: 30–60 mg/kg; cited from earlier work
[3] = tested on: mice; set-up: method as in PMID 40430337; conditions: 30 mg/kg; cited from earlier work
[4] = set-up: method as in PMID 40430337; conditions: cited from earlier work
[5] = target: T1, CYP3A4 (Homo sapiens, UniProt P08684); set-up: method as in PMID 40430337; conditions: cited from earlier work
T1 construct: purchased Promega
T1 sequence (P08684 whole entry): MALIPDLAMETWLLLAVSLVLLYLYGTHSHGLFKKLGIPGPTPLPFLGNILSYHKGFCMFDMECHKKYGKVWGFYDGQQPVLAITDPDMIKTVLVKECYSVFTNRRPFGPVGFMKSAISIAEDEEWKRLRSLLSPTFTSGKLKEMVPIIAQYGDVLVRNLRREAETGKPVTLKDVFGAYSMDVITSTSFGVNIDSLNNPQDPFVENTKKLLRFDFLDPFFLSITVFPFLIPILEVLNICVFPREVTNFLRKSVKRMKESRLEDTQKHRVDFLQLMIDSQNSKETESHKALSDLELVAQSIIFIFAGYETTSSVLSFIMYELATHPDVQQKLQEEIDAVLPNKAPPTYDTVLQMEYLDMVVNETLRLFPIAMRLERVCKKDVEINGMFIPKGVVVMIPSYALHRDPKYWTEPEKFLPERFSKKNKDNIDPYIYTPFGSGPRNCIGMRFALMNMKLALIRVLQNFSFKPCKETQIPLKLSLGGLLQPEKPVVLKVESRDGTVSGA

[6] = tested on: mice; set-up: method as in PMID 40430337; conditions: 30–60 mg/kg, rotarod and chimney; cited from earlier work
[7] = tested on: mice; set-up: method as in PMID 40430337; conditions: 30 mg/kg; cited from earlier work; remark: listed apart in the source
[8] = tested on: mice; set-up: method as in PMID 40430337; conditions: 30 mg/kg; cited from earlier work; remark: listed apart in the source
[9] = target: CYP2D6 (Homo sapiens, UniProt P10635); set-up: purchased Promega; method as in PMID 40430337; conditions: cited from earlier work
CYP2D6, sequence (P10635 whole entry): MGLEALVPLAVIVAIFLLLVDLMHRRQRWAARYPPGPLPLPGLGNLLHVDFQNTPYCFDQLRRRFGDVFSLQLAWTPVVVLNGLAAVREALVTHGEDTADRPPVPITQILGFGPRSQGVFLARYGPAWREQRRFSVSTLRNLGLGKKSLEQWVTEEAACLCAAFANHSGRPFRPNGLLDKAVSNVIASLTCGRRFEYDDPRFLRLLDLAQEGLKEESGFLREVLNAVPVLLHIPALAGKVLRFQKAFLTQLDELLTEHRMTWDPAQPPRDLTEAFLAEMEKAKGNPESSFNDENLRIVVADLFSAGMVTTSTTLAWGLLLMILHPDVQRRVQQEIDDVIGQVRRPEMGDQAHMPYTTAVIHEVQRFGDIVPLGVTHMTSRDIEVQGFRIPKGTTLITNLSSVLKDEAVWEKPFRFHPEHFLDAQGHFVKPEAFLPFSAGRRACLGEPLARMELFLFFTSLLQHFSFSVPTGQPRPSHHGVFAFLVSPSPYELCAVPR

[10] = tested on: mice; experiment: Amphetamine-induced hyperactivity; type: in vivo; conditions: amphetamine 3 mg/kg, vs saline-treated group, p < 0.05
Procedure: The investigated compound (SER2AAK2) was bought from Enamine (purity over 95%) and in all tests was administered intraperitoneally (i.p.), spread in a drop of Tween 80, and diluted with an aqueous solution of 0.5% methylcellulose (tylose) and injected 60 min before the tests in a volume of 10 mL/kg. Control groups received tylose injections of the same volume and via the same route of administration.
Locomotor activity of the mice was assessed using the Opto-Varimex-4 Auto-Track system (Columbus Instruments, OH, USA). Each mouse was placed individually in a testing cage for 25 min—5 min for acclimatization, followed by 20 min of activity recording. (6a) The total distance traveled (in centimeters) was measured. Cages were cleaned with 10% ethanol between sessions.

With `COc1cccc2c1C(=O)c1c(O)c3c(c(O)c1C2=O)C[C@@](O)(C(=O)CO)C[C@@H]3O[C@H]1C[C@H](N)[C@H](O)[C@H](C)O1` [DOX, Doxorubicin, reference compound] the “Percentage Reduction in the Number of Viable SH-SY5Y Cells [Mean ± SEM]” value [1] was 102 ± 1%.
For `OC(COC(c1ccccc1)c1ccccc1)CN1CCN(C(c2ccccc2)c2ccccc2)CC1` (stereo not shown) [SERAAK1], the Spontaneous locomotor activity [2] is listed as “no change (30–60 mg/kg)”, the “Elevated plus maze (EPM), open arm time and entries” value [3] is listed as “↑ open arm time and entries (30 mg/kg)—anxiolytic effect” and the “Pe (PAMPA)” value [4] is listed as less than 0.01 ×10⁻⁶ cm/s. The “CYP3A4 induction (increase of activity)” value [5] was 3.5 fold, the “Motor coordination (rotarod, chimney)” value [6] was “no impairment (30–60 mg/kg)—stable motor profile” and the “Forced swim test (FST), immobility” value [7] was “↓ immobility (30 mg/kg)—antidepressant-like effect connected with serotonergic modulation”. For the same molecule, the amphetamine-induced hyperactivity [8] was “↓ hyperactivity (30 mg/kg)” and the pIC50 [9] was 6.14.
With `CC(N)Cc1ccccc1` (stereo not shown) [amphetamine, reference compound] the “locomotor activity after amphetamine alone” value [10] was “significantly increased the locomotor activity”.

Source: publication PMC12693327, “SERAAK2 as a Serotonin Receptor Ligand: Structural and Pharmacological In Vitro and In Vivo Evaluation” (Molecules, 2025)
